The record followed here is patent US8501446B2 (Vertex Pharmaceuticals Incorporated, priority 2004, dated 2013).

Common to all, as to type: biochemical
Test [1] has as its target T1, JAK3 (Homo sapiens, UniProt P52333).
T1 sequence (P52333 1-1124): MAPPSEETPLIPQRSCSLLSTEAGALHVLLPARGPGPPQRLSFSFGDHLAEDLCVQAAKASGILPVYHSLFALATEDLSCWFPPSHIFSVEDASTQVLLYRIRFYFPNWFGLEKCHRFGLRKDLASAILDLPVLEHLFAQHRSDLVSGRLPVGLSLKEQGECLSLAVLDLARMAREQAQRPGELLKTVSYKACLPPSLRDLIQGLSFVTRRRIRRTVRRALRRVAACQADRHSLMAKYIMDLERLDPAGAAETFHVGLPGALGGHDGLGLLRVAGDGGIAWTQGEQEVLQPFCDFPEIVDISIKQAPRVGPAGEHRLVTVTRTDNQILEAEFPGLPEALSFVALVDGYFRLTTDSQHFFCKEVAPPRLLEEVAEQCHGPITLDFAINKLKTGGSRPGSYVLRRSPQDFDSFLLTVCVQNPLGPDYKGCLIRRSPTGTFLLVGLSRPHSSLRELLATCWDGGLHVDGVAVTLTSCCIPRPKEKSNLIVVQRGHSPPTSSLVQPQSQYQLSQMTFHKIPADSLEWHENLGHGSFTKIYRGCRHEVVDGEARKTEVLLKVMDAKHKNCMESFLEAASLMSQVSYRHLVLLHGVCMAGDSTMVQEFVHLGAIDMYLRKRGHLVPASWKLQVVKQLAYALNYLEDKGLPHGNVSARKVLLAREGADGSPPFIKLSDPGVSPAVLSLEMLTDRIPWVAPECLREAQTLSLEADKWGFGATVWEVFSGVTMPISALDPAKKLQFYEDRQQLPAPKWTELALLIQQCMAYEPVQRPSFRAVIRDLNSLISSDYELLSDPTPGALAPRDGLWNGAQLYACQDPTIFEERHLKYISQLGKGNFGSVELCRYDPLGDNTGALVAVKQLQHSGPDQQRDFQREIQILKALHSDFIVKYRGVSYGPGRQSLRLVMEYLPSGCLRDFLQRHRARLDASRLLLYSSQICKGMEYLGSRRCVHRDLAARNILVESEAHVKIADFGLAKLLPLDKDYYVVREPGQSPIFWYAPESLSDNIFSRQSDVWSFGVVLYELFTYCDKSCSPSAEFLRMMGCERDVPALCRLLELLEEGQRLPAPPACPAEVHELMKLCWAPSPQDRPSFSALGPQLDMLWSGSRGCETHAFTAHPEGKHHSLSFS
Put plainly: JAK3 inhibition assay (standard radioactive enzyme assay). Particulars: average Ki if more than one value determined.

Test [2] addresses T2, full length Aurora-A (AA 1-403) (Homo sapiens, UniProt O14965).
T2 construct: full length Aurora-A (AA 1-403)
T2 sequence (O14965 1-403): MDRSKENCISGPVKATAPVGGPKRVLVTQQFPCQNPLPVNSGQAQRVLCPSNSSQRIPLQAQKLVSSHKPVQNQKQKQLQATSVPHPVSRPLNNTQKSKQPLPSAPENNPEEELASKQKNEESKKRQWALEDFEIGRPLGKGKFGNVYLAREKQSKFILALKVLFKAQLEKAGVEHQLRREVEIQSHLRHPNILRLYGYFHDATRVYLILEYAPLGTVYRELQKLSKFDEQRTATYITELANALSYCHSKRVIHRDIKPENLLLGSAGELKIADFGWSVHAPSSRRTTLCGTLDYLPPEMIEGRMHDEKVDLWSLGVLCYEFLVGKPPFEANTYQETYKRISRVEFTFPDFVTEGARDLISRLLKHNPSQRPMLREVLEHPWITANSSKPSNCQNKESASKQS
Put plainly: Aurora-A inhibition assay, standard coupled enzyme system. Particulars: average Ki if more than one value determined.

Test [3] deals with T3, ROCK I (AA 6-553) (Homo sapiens, UniProt Q13464).
T3 construct: ROCK I (AA 6-553)
Put plainly: ROCK inhibition assay, standard coupled enzyme system ("Enzyme"). Particulars: enzyme-linked assay. The procedure, abridged: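 ROCK I (AA 6-553) at 45 nM and 30 °C with 45 μM ATP and 200 μM peptide, in 100 mM HEPES pH 7.5, 10 mM MgCl2, 25 mM NaCl, 2 mM DTT, 1.5% DMSO. ADP output read by a PK/LDH coupled system: 2.5 mM PEP, 350 μM NADH, 30 μg/ml PK, 10 μg/ml LDH.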

The target in test [4] is JAK2 (Homo sapiens, UniProt O60674). Put plainly: JAK2 inhibition assay (radioactive enzyme assay, as for JAK3). The note with it: average Ki if more than one value determined. The procedure, abridged: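 Both kinases: poly(Glu)4Tyr substrate in 100 mM HEPES pH 7.4, 10 mM MgCl2, 1 mM DTT. Run 20 min at 25° C, TCA stop, filter-bound ³³P counted, Ki(app) fitted after background subtraction. JAK3: final [γ-³³P]ATP 5 μM, enzyme added as 2 nM solution. JAK2: final poly(Glu)4Tyr 15 μM, final ATP 12 μM.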
Sequence of JAK2 (O60674 whole entry, species assumed): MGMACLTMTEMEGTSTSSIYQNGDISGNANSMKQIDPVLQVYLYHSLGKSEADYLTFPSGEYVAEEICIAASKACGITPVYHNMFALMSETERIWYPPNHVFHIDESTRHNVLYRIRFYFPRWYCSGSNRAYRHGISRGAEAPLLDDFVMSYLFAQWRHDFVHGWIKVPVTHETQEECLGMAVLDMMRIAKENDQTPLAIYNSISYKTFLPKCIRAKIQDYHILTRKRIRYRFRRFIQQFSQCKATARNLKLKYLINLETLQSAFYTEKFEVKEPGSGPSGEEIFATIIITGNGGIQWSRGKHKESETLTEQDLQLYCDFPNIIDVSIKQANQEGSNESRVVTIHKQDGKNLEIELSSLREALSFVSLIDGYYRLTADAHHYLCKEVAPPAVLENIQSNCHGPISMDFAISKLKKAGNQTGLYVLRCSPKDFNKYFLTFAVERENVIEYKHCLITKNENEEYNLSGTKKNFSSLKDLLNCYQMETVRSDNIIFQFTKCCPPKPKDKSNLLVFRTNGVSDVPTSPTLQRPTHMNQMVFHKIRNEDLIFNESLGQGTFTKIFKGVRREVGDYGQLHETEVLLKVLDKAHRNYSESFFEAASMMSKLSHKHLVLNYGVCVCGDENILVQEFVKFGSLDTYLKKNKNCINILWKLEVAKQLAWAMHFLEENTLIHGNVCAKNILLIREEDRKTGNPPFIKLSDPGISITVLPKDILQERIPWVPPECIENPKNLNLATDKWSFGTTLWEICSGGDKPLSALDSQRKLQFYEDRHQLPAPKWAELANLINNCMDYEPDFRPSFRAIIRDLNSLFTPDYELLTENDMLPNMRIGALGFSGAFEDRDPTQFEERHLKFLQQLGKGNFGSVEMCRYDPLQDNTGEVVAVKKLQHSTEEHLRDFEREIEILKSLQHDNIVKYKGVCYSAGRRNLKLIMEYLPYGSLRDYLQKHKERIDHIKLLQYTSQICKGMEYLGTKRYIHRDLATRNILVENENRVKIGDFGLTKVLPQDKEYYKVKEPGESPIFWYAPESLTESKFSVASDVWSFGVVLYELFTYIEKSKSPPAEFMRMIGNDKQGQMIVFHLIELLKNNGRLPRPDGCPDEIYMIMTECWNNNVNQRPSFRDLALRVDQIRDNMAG

T3 sequence (Q13464 6-553, species assumed): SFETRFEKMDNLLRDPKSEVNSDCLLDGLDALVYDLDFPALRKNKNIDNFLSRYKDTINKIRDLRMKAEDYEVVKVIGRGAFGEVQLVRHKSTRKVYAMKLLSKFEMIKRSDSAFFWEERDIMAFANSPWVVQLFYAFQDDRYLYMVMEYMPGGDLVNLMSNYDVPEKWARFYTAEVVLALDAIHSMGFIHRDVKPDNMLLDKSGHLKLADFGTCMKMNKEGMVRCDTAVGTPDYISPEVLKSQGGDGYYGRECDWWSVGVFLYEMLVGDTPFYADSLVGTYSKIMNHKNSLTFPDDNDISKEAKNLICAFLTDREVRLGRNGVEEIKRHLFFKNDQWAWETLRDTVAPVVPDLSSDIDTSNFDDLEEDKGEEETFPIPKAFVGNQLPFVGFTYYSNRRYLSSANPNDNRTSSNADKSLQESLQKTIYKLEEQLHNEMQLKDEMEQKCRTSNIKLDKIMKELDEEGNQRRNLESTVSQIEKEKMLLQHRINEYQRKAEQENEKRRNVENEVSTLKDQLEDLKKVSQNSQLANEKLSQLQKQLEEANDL

Take `CC(=O)N1[C@H](C)CN(c2cccc(-c3c[nH]c4ncc(NC(=O)Oc5ccccc5)cc34)n2)C[C@@H]1C` [Compound 69]: the Ki (usually a measure of affinity in units of concentration, obtained from inhibition or displacement) in test [1] was less than 500 nM; in test [2] it was 500 to 5000 nM; in test [3] it was 500 to 5000 nM; in test [4], less than 500 nM.
As for `CC(=O)N1[C@H](C)CN(c2cccc(-c3c[nH]c4ncc(C(=O)N(C)C)cc34)n2)C[C@@H]1C` [Compound 60], the Ki in test [1], in test [2], in test [3] and in test [4] was 500 to 5000 nM in each case.
In the case of `CC(=O)N1[C@H](C)CN(c2cccc(-c3c[nH]c4ncc(C(=O)OC(C)C)cc34)n2)C[C@@H]1C` [Compound 53], the Ki in test [1], in test [2], in test [3] and in test [4] was less than 500 nM throughout.
Turning to `CC(=O)N1[C@H](C)CN(c2cccc(-c3c[nH]c4ncc(NC(=O)C5=CCCCC5)cc34)n2)C[C@@H]1C` [Compound 155], the Ki in test [1] was less than 500 nM; in test [2] it was 500 to 5000 nM; in test [3] it was 500 to 5000 nM; in test [4] it was less than 500 nM.
As to `CC(=O)N1[C@H](C)CN(c2cccc(-c3c[nH]c4ncc(C(=O)O)cc34)n2)C[C@@H]1C` [Compound 47], the Ki in test [1] was less than 500 nM; in test [2] it was 500 to 5000 nM; in test [3] it was 500 to 5000 nM; in test [4] it was less than 500 nM.
In the case of `CC(=O)N1[C@H](C)CN(c2cccc(-c3c[nH]c4ncc(NC(=O)c5ccccc5F)cc34)n2)C[C@@H]1C` [Compound 172], the Ki was less than 500 nM in test [1], 500 to 5000 nM in test [2], less than 500 nM in test [3] and less than 500 nM in test [4].
Take `CC(=O)N1[C@H](C)CN(c2cc(C(N)=O)cc(-c3c[nH]c4ncc(Cl)cc34)n2)C[C@@H]1C` [Compound 97]: the Ki in test [1] was less than 500 nM; in test [2], less than 500 nM; in test [3], 500 to 5000 nM; in test [4] it was less than 500 nM.
`C/C=C/C(=O)Nc1cnc2[nH]cc(-c3cccc(N4C[C@@H](C)N(C(C)=O)[C@@H](C)C4)n3)c2c1` [Compound 181]: the Ki in test [1] was less than 500 nM; in test [2] it was 500 to 5000 nM; in test [3], 500 to 5000 nM; in test [4] it was less than 500 nM.
For the compound `CC(=O)N1[C@H](C)CN(c2cccc(-c3c[nH]c4ncc(C(=O)N5C[C@@H](C)N[C@@H](C)C5)cc34)n2)C[C@@H]1C` [Compound 52], the Ki in test [1] was more than 5000 nM; in test [2] it was 500 to 5000 nM; in test [3], 500 to 5000 nM; in test [4] it was more than 5000 nM.
As for `CC(=O)N1[C@H](C)CN(c2cccc(-c3c[nH]c4ncc(NC(=O)c5cccnc5)cc34)n2)C[C@@H]1C` [Compound 163], the Ki was less than 500 nM in test [1], 500 to 5000 nM in test [2], 500 to 5000 nM in test [3] and less than 500 nM in test [4].
With `CC(=O)N1[C@H](C)CN(c2nc(-c3c[nH]c4ncc(Cl)cc34)c(F)cc2C#N)C[C@@H]1C` [Compound 68], the Ki in test [1] was less than 500 nM; in test [2], less than 500 nM; in test [3], 500 to 5000 nM; in test [4] it was less than 500 nM.
In the case of `CC(=O)N1[C@H](C)CN(c2ccc(C#N)c(-c3c[nH]c4ncc(Cl)cc34)n2)C[C@@H]1C` [Compound 93], the Ki in test [1] is less than 500 nM; in test [2], less than 500 nM; in test [3], 500 to 5000 nM; in test [4] it was less than 500 nM.
As to `C=C/C=C/C(=O)Nc1cnc2[nH]cc(-c3cccc(N4C[C@@H](C)N(C(C)=O)[C@@H](C)C4)n3)c2c1` [Compound 191], the Ki in test [1] was less than 500 nM; in test [2], 500 to 5000 nM; in test [3], less than 500 nM; in test [4] it was less than 500 nM.
Regarding `Fc1cnc2[nH]cc(-c3cccc(NCc4ccccc4)n3)c2c1` [Compound 48], the Ki in test [1] was less than 500 nM; in test [2] it was less than 500 nM; in test [3], 500 to 5000 nM; in test [4] it was less than 500 nM.
With `CC(=O)N1[C@H](C)CN(c2ccc(N)c(-c3c[nH]c4ncc(Cl)cc34)n2)C[C@@H]1C` [Compound 81], the Ki in test [1] was 500 to 5000 nM; in test [2], less than 500 nM; in test [3] it was 500 to 5000 nM; in test [4] it was 500 to 5000 nM.
With `O=C(O)c1ccc(-c2c[nH]c3ncc(Cl)cc23)nc1NCc1ccccc1` [Compound 42], the Ki in test [1] is less than 500 nM; in test [2], less than 500 nM; in test [3], 500 to 5000 nM; in test [4] it was less than 500 nM.
In the case of `C[C@@H](Nc1cccc(-c2c[nH]c3ncc(Cl)cc23)n1)c1ccc(F)cc1` [Compound 131], the Ki is less than 500 nM in test [1], less than 500 nM in test [2], 500 to 5000 nM in test [3] and less than 500 nM in test [4].
For the compound `CC(=O)N1[C@H](C)CN(c2cc(C#N)cc(-c3c[nH]c4ncc(Cl)cc34)n2)C[C@@H]1C` [Compound 98], the Ki is less than 500 nM in test [1], less than 500 nM in test [2], 500 to 5000 nM in test [3] and less than 500 nM in test [4].
Consider `O=C(O)c1cc(Br)cc(-c2c[nH]c3ncc(Cl)cc23)c1` [Compound 177], for which the Ki in test [1] was less than 500 nM; in test [2], less than 500 nM; in test [3], 500 to 5000 nM; in test [4] it was less than 500 nM.
Regarding `CC(=O)N1CCCN(c2cccc(-c3c[nH]c4ncc(C(=O)NCCCN5CCN(C)CC5)cc34)n2)CC1` [Compound 125], the Ki was less than 500 nM in test [1], 500 to 5000 nM in test [2], 500 to 5000 nM in test [3] and less than 500 nM in test [4].
As for `CC(=O)N1[C@H](C)CN(c2cccc(-c3c[nH]c4ncc(NC(=O)c5nc[nH]n5)cc34)n2)C[C@@H]1C` [Compound 190], the Ki was less than 500 nM in test [1], 500 to 5000 nM in test [2], 500 to 5000 nM in test [3] and less than 500 nM in test [4].
On to `CC(=O)N1[C@H](C)CN(c2cccc(-c3c[nH]c4ncc(NC(=O)CCN5CCOCC5)cc34)n2)C[C@@H]1C` [Compound 121], for which the Ki in test [1] was less than 500 nM; in test [2] it was 500 to 5000 nM; in test [3], 500 to 5000 nM; in test [4], less than 500 nM.
As for `O[C@H]1CCCC[C@@H]1Nc1cccc(-c2c[nH]c3ncc(Cl)cc23)n1` [Compound 132], the Ki in test [1] was less than 500 nM; in test [2], less than 500 nM; in test [3], 500 to 5000 nM; in test [4], less than 500 nM.
For `C/C=C(\C)C(=O)Nc1cnc2[nH]cc(-c3cccc(N4C[C@@H](C)N(C(C)=O)[C@@H](C)C4)n3)c2c1` [Compound 161], the Ki was less than 500 nM in test [1], 500 to 5000 nM in test [2], 500 to 5000 nM in test [3] and less than 500 nM in test [4].
As for `CC(C)CN(C)c1cccc(-c2c[nH]c3ncc(Cl)cc23)n1` [Compound 123], the Ki in test [1] was less than 500 nM; in test [2], 500 to 5000 nM; in test [3], 500 to 5000 nM; in test [4], less than 500 nM.
`OC[C@H](Nc1cccc(-c2c[nH]c3ncc(Cl)cc23)n1)c1ccccc1` [Compound 100]: the Ki in test [1] is less than 500 nM; in test [2] it was less than 500 nM; in test [3], 500 to 5000 nM; in test [4] it was less than 500 nM.
